Converted amounts (≈) assume the structure as drawn.

Experiment [1] has as its system Staphylococcus aureus (S. aureus) 29213. Briefly: Antibacterial activity, microbroth dilution MIC (Table 1). In kind it is cell-based. Particulars: microbroth dilution, Gram-positive S. aureus 29213, read-out: MIC, 29213. An outline of the steps:
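Each strain is exposed to test compound in a microbroth dilution series; visible growth is scored macroscopically, and the lowest growth-free concentration is recorded as MIC in μg/mL.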

Experiment [2] concerns Escherichia coli (E. coli) BAS849. The description is as above. In kind it is cell-based. Particulars: microbroth dilution, super sensitive Gram-negative E. coli BAS849, read-out: MIC, BAS849. Put shortly: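 Microbroth dilution was used. MIC, in μg/mL, is the lowest drug concentration preventing macroscopically visible growth under the test conditions.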
Experiment [3] has as its system E. coli 25922. Described as above. The note with it: Escherichia coli; microbroth dilution; control Gram-negative E. coli 25922 strain; read-out: MIC, 25922. In kind it is cell-based, Escherichia coli. Put shortly: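 Broth microdilution; endpoint = no macroscopic growth; value = lowest inhibiting concn, μg/mL.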
(In broth dilution the organism is exposed to a series of concentrations in liquid medium.)

The subject of experiment [4] is E. coli LZ3111. Briefly: Antibacterial activity, MIC, quinolone resistant strain (Table 2). The note with it: Escherichia coli, LZ3111, read-out: MIC LZ3111. Type of experiment: cell-based. An outline of the steps: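 MIC values (μg/mL) came from a microbroth dilution assay, scored as the lowest drug concentration at which no growth was visible by eye.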

For orientation: MIC means the lowest concentration that inhibits growth of the organism. Turning to `CCc1c(-c2ccc3c(c2)cc(CN[C@H]2[C@@H]4CNC[C@@H]42)n3C)[nH]c(=O)c(C(=O)O)c1O` [Cpd 198, 6-(2-(((1R,5S,6s)-3-azabicyclo[3.1.0]hexan-6-ylamino)methyl)-1-methyl-1H-indol-5-yl)-5-ethyl-4-hydroxy-2-oxo-1,2-dihydropyridine-3-carboxylic acid], the MIC in experiment [1] lay within 12.5 to 150 µg/mL (≈ 29.6 to 355 µM); in experiment [2] it was 1 to 3.5 µg/mL (≈ 2.37 to 8.28 µM); in experiment [3], 12.5 to 150 µg/mL (≈ 29.6 to 355 µM); in experiment [4], 12.5 to 150 µg/mL (≈ 29.6 to 355 µM).
As for `CCc1c(-c2ccc3c(c2)cc(CNCCNC)n3C)[nH]c(=O)c(C(=O)O)c1O` [Cpd 204, 5-ethyl-4-hydroxy-6-(1-methyl-2-((2-(methylamino)ethylamino)methyl)-1H-indol-5-yl)-2-oxo-1,2-dihydropyridine-3-carboxylic acid], the MIC was in the range of 12.5 to 150 µg/mL (≈ 31.4 to 376 µM) in experiment [1], 1 to 3.5 µg/mL (≈ 2.51 to 8.78 µM) in experiment [2], 3.5 to 12.5 µg/mL (≈ 8.78 to 31.4 µM) in experiment [3] and 12.5 to 150 µg/mL (≈ 31.4 to 376 µM) in experiment [4].
On to `CCc1c(-c2ccc3c(c2)cc(CNCCN)n3C)[nH]c(=O)c(C(=O)O)c1O` [Cpd 205, 6-(2-((2-aminoethylamino)methyl)-1-methyl-1H-indol-5-yl)-5-ethyl-4-hydroxy-2-oxo-1,2-dihydropyridine-3-carboxylic acid], for which the MIC lay in the range of 12.5 to 150 µg/mL (≈ 32.5 to 390 µM) in experiment [1], 1 to 3.5 µg/mL (≈ 2.6 to 9.1 µM) in experiment [2], 12.5 to 150 µg/mL (≈ 32.5 to 390 µM) in experiment [3] and 12.5 to 150 µg/mL (≈ 32.5 to 390 µM) in experiment [4].
In the case of `CCc1c(-c2ccc3c(c2)cc(CN2CC(N(C)Cc4ccccc4)C2)n3C)[nH]c(=O)c(C(=O)O)c1O` [Cpd 206, 6-(2-((3-(benzyl(methyl)amino)azetidin-1-yl)methyl)-1-methyl-1H-indol-5-yl)-5-ethyl-4-hydroxy-2-oxo-1,2-dihydropyridine-3-carboxylic acid], the MIC in experiment [1] is 3.5 to 12.5 µg/mL (≈ 6.99 to 25 µM); in experiment [2], under 1 µg/mL; in experiment [3], 3.5 to 12.5 µg/mL (≈ 6.99 to 25 µM); in experiment [4] it was 12.5 to 150 µg/mL (≈ 25 to 300 µM).
As for `CCc1c(-c2ccc3c(c2)cc(CN2CC(N(C)CCN(C)C)C2)n3C)[nH]c(=O)c(C(=O)O)c1O` [Cpd 207, 6-(2-((3-((2-(dimethylamino)ethyl)(methyl)amino)azetidin-1-yl)methyl)-1-methyl-1H-indol-5-yl)-5-ethyl-4-hydroxy-2-oxo-1,2-dihydropyridine-3-carboxylic acid], the minimum inhibitory concentration (MIC) in experiment [1] fell in the range of 12.5 to 150 µg/mL (≈ 26 to 311 µM); in experiment [2], 1 to 3.5 µg/mL (≈ 2.08 to 7.27 µM); in experiment [3], 12.5 to 150 µg/mL (≈ 26 to 311 µM); in experiment [4], 12.5 to 150 µg/mL (≈ 26 to 311 µM).
As to `CCc1c(-c2ccc3c(c2)cc(CN(C)C2CC2)n3C)[nH]c(=O)c(C(=O)O)c1O.Cl` [Cpd 212, 6-(2-((cyclopropyl(methyl)amino)methyl)-1-methyl-1H-indol-5-yl)-5-ethyl-4-hydroxy-2-oxo-1,2-dihydropyridine-3-carboxylic acid hydrochloride], the MIC was 1 to 3.5 µg/mL in experiment [1], under 1 µg/mL in experiment [2], 1 to 3.5 µg/mL in experiment [3] and 12.5 to 150 µg/mL in experiment [4].
On to `CCc1c(-c2ccc3c(c2)cc(CNc2ccccc2)n3C)[nH]c(=O)c(C(=O)O)c1O` [Cpd 213, 5-ethyl-4-hydroxy-6-(1-methyl-2-((phenylamino)methyl)-1H-indol-5-yl)-2-oxo-1,2-dihydropyridine-3-carboxylic acid], for which the MIC was 1 to 3.5 µg/mL (≈ 2.4 to 8.38 µM) in experiment [1], under 1 µg/mL in experiment [2], 12.5 to 150 µg/mL (≈ 29.9 to 359 µM) in experiment [3] and 12.5 to 150 µg/mL (≈ 29.9 to 359 µM) in experiment [4].
For the molecule `CCc1c(-c2ccc3c(c2)cc(CN[C@H](C)c2ccccc2)n3C)[nH]c(=O)c(C(=O)O)c1O.Cl` [Cpd 215, (R)-5-ethyl-4-hydroxy-6-(1-methyl-2-((1-phenylethylamino)methyl)-1H-indol-5-yl)-2-oxo-1,2-dihydropyridine-3-carboxylic acid hydrochloride], the MIC in experiment [1] was 1 to 3.5 µg/mL; in experiment [2] it was under 1 µg/mL; in experiment [3], 1 to 3.5 µg/mL; in experiment [4] it was 12.5 to 150 µg/mL.
Turning to `CCc1c(-c2ccc3c(c2)cc(CN[C@@H](C)c2ccccc2)n3C)[nH]c(=O)c(C(=O)O)c1O.Cl` [Cpd 216, (S)-5-ethyl-4-hydroxy-6-(1-methyl-2-((1-phenylethylamino)methyl)-1H-indol-5-yl)-2-oxo-1,2-dihydropyridine-3-carboxylic acid hydrochloride], the MIC in experiment [1] is 1 to 3.5 µg/mL; in experiment [2] it was under 1 µg/mL; in experiment [3] it was 1 to 3.5 µg/mL; in experiment [4], 12.5 to 150 µg/mL.
With `CCc1c(-c2ccc3c(c2)cc(CNC(C)(C)c2ccccc2)n3C)[nH]c(=O)c(C(=O)O)c1O.Cl` [Cpd 217, 5-ethyl-4-hydroxy-6-(1-methyl-2-((2-phenylpropan-2-ylamino)methyl)-1H-indol-5-yl)-2-oxo-1,2-dihydropyridine-3-carboxylic acid hydrochloride], the MIC in experiment [1] is 1 to 3.5 µg/mL; in experiment [2], under 1 µg/mL; in experiment [3], 1 to 3.5 µg/mL; in experiment [4], 12.5 to 150 µg/mL.
In the case of `CCc1c(-c2ccc3c(c2)cc(CN(C)Cc2ccccc2)n3C)[nH]c(=O)c(C(=O)O)c1O.Cl` [Cpd 218, 6-(2-((benzyl(methyl)amino)methyl)-1-methyl-1H-indol-5-yl)-5-ethyl-4-hydroxy-2-oxo-1,2-dihydropyridine-3-carboxylic acid hydrochloride], the MIC is 3.5 to 12.5 µg/mL in experiment [1], under 1 µg/mL in experiment [2], 12.5 to 150 µg/mL in experiment [3] and 12.5 to 150 µg/mL in experiment [4].
As for `CCc1c(-c2ccc3c(c2)cc(CNCC2CCCCC2)n3C)[nH]c(=O)c(C(=O)O)c1O.Cl` [Cpd 222, 6-(2-((cyclohexylmethylamino)methyl)-1-methyl-1H-indol-5-yl)-5-ethyl-4-hydroxy-2-oxo-1,2-dihydropyridine-3-carboxylic acid hydrochloride], the MIC was 1 to 3.5 µg/mL in experiment [1], under 1 µg/mL in experiment [2], under 1 µg/mL in experiment [3] and 12.5 to 150 µg/mL in experiment [4].
With `CCc1c(-c2ccc3c(c2)cc(CN(C)Cc2cccnc2)n3C)[nH]c(=O)c(C(=O)O)c1O.Cl` [Cpd 224, 5-ethyl-4-hydroxy-6-(1-methyl-2-((methyl(pyridin-3-ylmethyl)amino)methyl)-1H-indol-5-yl)-2-oxo-1,2-dihydropyridine-3-carboxylic acid hydrochloride], the MIC in experiment [1] is 3.5 to 12.5 µg/mL; in experiment [2], under 1 µg/mL; in experiment [3], 1 to 3.5 µg/mL; in experiment [4], 12.5 to 150 µg/mL.
For the molecule `CCc1c(-c2ccc3c(c2)cc(CN(C)Cc2ccncc2)n3C)[nH]c(=O)c(C(=O)O)c1O.Cl` [Cpd 225, 5-ethyl-4-hydroxy-6-(1-methyl-2-((methyl(pyridin-4-ylmethyl)amino)methyl)-1H-indol-5-yl)-2-oxo-1,2-dihydropyridine-3-carboxylic acid hydrochloride], the MIC is 3.5 to 12.5 µg/mL in experiment [1], under 1 µg/mL in experiment [2], 3.5 to 12.5 µg/mL in experiment [3] and 12.5 to 150 µg/mL in experiment [4].
`CCc1c(-c2ccc3c(c2)cc(CNC(C)c2ccncc2)n3C)[nH]c(=O)c(C(=O)O)c1O.Cl` (centres unmarked) [Cpd 226, 5-ethyl-4-hydroxy-6-(1-methyl-2-((1-(pyridin-4-yl)ethylamino)methyl)-1H-indol-5-yl)-2-oxo-1,2-dihydropyridine-3-carboxylic acid hydrochloride]: the MIC is 1 to 3.5 µg/mL in experiment [1], under 1 µg/mL in experiment [2], 1 to 3.5 µg/mL in experiment [3] and 12.5 to 150 µg/mL in experiment [4].
Consider `CCc1c(-c2ccc3c(c2)cc(CNCC(C)(C)C)n3C)[nH]c(=O)c(C(=O)O)c1O.Cl` [Cpd 237, 5-ethyl-4-hydroxy-6-(1-methyl-2-((neopentylamino)methyl)-1H-indol-5-yl)-2-oxo-1,2-dihydropyridine-3-carboxylic acid hydrochloride], for which the MIC in experiment [1] is 3.5 to 12.5 µg/mL; in experiment [2], under 1 µg/mL; in experiment [3] it was 1 to 3.5 µg/mL; in experiment [4], 12.5 to 150 µg/mL.
For the molecule `CCc1c(-c2ccc3c(c2)cc(CNC(C)c2cccnc2)n3C)[nH]c(=O)c(C(=O)O)c1O.Cl` (centres unmarked) [Cpd 242, 5-ethyl-4-hydroxy-6-(1-methyl-2-((1-(pyridin-3-yl)ethylamino)methyl)-1H-indol-5-yl)-2-oxo-1,2-dihydropyridine-3-carboxylic acid hydrochloride], the MIC in experiment [1] was 1 to 3.5 µg/mL; in experiment [2], under 1 µg/mL; in experiment [3], 1 to 3.5 µg/mL; in experiment [4] it was 12.5 to 150 µg/mL.
As to `CCc1c(-c2ccc3c(c2)cc(CNC2CNC2)n3C)[nH]c(=O)c(C(=O)O)c1O.Cl.Cl` [Cpd 244, 6-(2-((azetidin-3-ylamino)methyl)-1-methyl-1H-indol-5-yl)-5-ethyl-4-hydroxy-2-oxo-1,2-dihydropyridine-3-carboxylic acid dihydrochloride], the MIC lay within 12.5 to 150 µg/mL in experiment [1], 1 to 3.5 µg/mL in experiment [2], 12.5 to 150 µg/mL in experiment [3] and 12.5 to 150 µg/mL in experiment [4].
Take `CCc1c(-c2ccc3c(c2)cc(CNC2CN(C)C2)n3C)[nH]c(=O)c(C(=O)O)c1O.Cl.Cl` [Cpd 246, 5-ethyl-4-hydroxy-6-(1-methyl-2-((1-methylazetidin-3-ylamino)methyl)-1H-indol-5-yl)-2-oxo-1,2-dihydropyridine-3-carboxylic acid dihydrochloride]: the MIC was in the range of 12.5 to 150 µg/mL in experiment [1], 1 to 3.5 µg/mL in experiment [2], 12.5 to 150 µg/mL in experiment [3] and 3.5 to 12.5 µg/mL in experiment [4].
On to `CCc1c(-c2ccc3c(c2)cc(CN2CCC(F)(F)CC2)n3C)[nH]c(=O)c(C(=O)O)c1O` [Cpd 249, 6-(2-((4,4-difluoropiperidin-1-yl)methyl)-1-methyl-1H-indol-5-yl)-5-ethyl-4-hydroxy-2-oxo-1,2-dihydropyridine-3-carboxylic acid], for which the MIC is 1 to 3.5 µg/mL (≈ 2.24 to 7.86 µM) in experiment [1], under 1 µg/mL in experiment [2], 12.5 to 150 µg/mL (≈ 28.1 to 337 µM) in experiment [3] and 12.5 to 150 µg/mL (≈ 28.1 to 337 µM) in experiment [4].

For the origin of these results see patent publication US9409905B2, “Antibacterial compounds and methods for use” (PTC THERAPEUTICS, INC., priority 2011, dated 2016).
